Reference: ChEMBL document CHEMBL1134360, “Thiazole and thiadiazole analogues as a novel class of adenosine receptor antagonists” (J Med Chem, 2001)

Biological target: T1, Adenosine receptor A2a (Rattus norvegicus, UniProt P30543)
Assay: Displacement of [3H]-CGS- 21680 binding in adenosine A2A receptor of rat striatal membrane
Details: not given

T1 sequence (P30543 whole entry): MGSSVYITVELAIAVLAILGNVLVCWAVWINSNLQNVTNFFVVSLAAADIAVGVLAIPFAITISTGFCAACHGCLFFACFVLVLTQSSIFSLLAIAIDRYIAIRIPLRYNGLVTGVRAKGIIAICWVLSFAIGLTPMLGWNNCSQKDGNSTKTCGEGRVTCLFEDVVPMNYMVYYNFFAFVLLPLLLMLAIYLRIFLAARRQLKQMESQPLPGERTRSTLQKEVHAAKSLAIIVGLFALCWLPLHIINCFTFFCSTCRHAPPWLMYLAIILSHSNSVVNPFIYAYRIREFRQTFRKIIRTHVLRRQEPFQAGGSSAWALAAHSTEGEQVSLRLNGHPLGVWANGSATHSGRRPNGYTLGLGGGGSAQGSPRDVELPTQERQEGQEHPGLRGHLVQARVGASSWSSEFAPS

Ki [µM] | Structure (SMILES)
> 10 | COc1ccc(C(=O)Nc2nc(-c3ccccn3)cc3ccccc23)cc1
> 10 | COc1ccccc1NC(=O)Nc1nc(-c2cccnc2)nc2ccccc12

Biological target: T1, Adenosine receptor A2a
Assay: Displacement of [3H]-CGS-21,680 or [3H]ZM-241385 binding in adenosine A2A receptor of rat striatal membrane was determined
Details: not given

Ki [µM] | Structure (SMILES)
0.57 | O=C(Nc1nc(-c2ccccc2)ns1)c1ccc(O)cc1
4.4 | O=C(Nc1nc(-c2ccccc2)ns1)c1ccccc1
1.9 | COC1CCC(C(=O)Nc2nc(-c3ccccc3)ns2)CC1 (stereo in doubt; 8k)
15 | O=C(O)COc1ccc(C(=O)Nc2nc(-c3ccccc3)ns2)cc1
2.3 | COc1ccc(C(=O)Nc2nc(-c3ccccc3)ns2)cc1
1.9 | COc1ccc(C(=O)Nc2nc(-c3ccccc3)cs2)cc1

More lines, now with the values behind:

Structure (SMILES) | Ki [µM]
COC1CCC(C(=O)Nc2nc(-c3ccccc3)ns2)CC1 (stereo in doubt; 8l) | 2
O=C(Nc1nc(-c2ccccn2)cs1)c1cccc(Cl)c1 | 1.3
O=C(Nc1nc(-c2ccccn2)cs1)c1ccccc1 | 8.7
O=C(Nc1nc(-c2ccccn2)cs1)C1CCCC1 | 1.3
O=C(Nc1ccccc1)Nc1nc(-c2ccccn2)cs1 | 0.92

Biological target: T2, Adenosine receptor A1 (Rattus norvegicus) (UniProt P25099)
T2 sequence (whole entry): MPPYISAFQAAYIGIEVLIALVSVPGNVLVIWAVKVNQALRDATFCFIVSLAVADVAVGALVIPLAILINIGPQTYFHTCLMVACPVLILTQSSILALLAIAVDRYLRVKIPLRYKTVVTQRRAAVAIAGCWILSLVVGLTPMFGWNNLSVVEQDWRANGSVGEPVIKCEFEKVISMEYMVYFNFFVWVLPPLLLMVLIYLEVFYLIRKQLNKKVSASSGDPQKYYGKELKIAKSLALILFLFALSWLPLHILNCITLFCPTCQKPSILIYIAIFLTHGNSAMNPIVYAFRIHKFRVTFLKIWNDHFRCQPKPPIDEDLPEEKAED
Assay: Displacement of [3H]DPCPX binding in adenosine A1 receptor of rat brain cortical membrane at a concentration of 10 uM
Details: not given

Displacement [%] | Structure (SMILES)
20 | COc1ccc(C(=O)Nc2cc(-c3ccccc3)[nH]n2)cc1
49 | O=C(Nc1nc(-c2ccccc2)ns1)c1ccc(I)cc1
48 | COc1ccc(C(=O)Nc2nc(-c3ccccc3)ns2)cc1C
44 | COc1ccc(NC(=O)Nc2nc(-c3ccccc3)ns2)cc1
34 | O=C(Nc1nc(-c2ccccc2)ns1)c1ccc([N+](=O)[O-])cc1
27 | COc1ccccc1NC(=O)Nc1nc(-c2ccccc2)ns1

Continued, molecule first:

Structure (SMILES) | Displacement [%]
COc1ccc(C(=O)Nc2cccc(-c3ccccc3)c2)cc1 | 30
COc1ccc(C(=O)Nc2cccc(-c3ccccc3)n2)cc1 | 46
COc1ccc(NC(=O)Nc2nc(-c3ccccn3)cs2)cc1 | 4
COc1ccc(C(=O)NC2=NN(c3ccccc3)CC2)cc1 | 26

Biological target: T2, Adenosine receptor A1 (Rattus norvegicus)
Assay: Percentage displacement of [3H]DPCPX binding in adenosine A1 receptor of rat brain cortical membrane at a concentration of 10 uM
Details: not given

Displacement [%] | Structure (SMILES)
34 | O=C(Nc1nc(-c2ccccc2)nc2ccccc12)c1ccccc1

Biological target: Adenosine receptor A2a (Rattus norvegicus) (UniProt P30543)
Sequence (P30543 whole entry): as the sequence (P30543 whole entry) above
Assay: Percentage displacement of [3H]-CGS- 21680 binding in adenosine A2A receptor of rat striatal membrane at a concentration of 10 uM
Details: not given

Displacement [%] | Structure (SMILES)
17 | O=C(Nc1nc(-c2ccccc2)nc2ccccc12)c1ccccc1

Biological target: Adenosine receptor A2a (Rattus norvegicus) (UniProt P30543)
Assay: Displacement of [3H]CGS-21680 or [3H]ZM-241,385 binding in adenosine A2A receptor of rat striatal membrane at 10 uM
Details: not given

Displacement [%] | Structure (SMILES)
16 | COc1ccc(C(=O)Nc2cc(-c3ccccc3)[nH]n2)cc1
19 | O=C(Nc1nc(-c2ccccc2)ns1)c1ccc(I)cc1
8 | COc1ccc(C(=O)Nc2nc(-c3ccccc3)ns2)cc1C
16 | COc1ccc(NC(=O)Nc2nc(-c3ccccc3)ns2)cc1
5 | O=C(Nc1nc(-c2ccccc2)ns1)c1ccc([N+](=O)[O-])cc1
38 | COc1ccccc1NC(=O)Nc1nc(-c2ccccc2)ns1

Further lines, the molecule ahead of its results:

Structure (SMILES) | Displacement [%]
COc1ccc(C(=O)Nc2cccc(-c3ccccc3)c2)cc1 | 41
COc1ccc(C(=O)Nc2cccc(-c3ccccc3)n2)cc1 | 16
COc1ccc(NC(=O)Nc2nc(-c3ccccn3)cs2)cc1 | 11
COc1ccc(C(=O)NC2=NN(c3ccccc3)CC2)cc1 | 19

Biological target: T3, Adenosine receptor A3 (Homo sapiens, UniProt P0DMS8)
T3 sequence (P0DMS8 whole entry): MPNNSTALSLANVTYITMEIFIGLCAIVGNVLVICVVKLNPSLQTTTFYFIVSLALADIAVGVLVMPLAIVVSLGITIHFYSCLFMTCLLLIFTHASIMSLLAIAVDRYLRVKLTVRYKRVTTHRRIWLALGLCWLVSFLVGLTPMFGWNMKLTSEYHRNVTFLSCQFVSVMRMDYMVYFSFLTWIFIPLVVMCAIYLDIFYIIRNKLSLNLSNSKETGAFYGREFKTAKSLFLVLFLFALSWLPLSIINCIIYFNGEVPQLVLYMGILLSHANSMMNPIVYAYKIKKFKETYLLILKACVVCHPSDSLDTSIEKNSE
Assay: Displacement of [125I]AB-MECA from human adenosine A3 receptor expressed in HEK 293 cells
Type: cell-based, HEK293
Details: not given

Ki [µM] | Structure (SMILES)
0.13 | O=C(Nc1nc(-c2ccccc2)ns1)c1ccc(O)cc1
1.1 | O=C(Nc1nc(-c2ccccc2)ns1)c1ccc(I)cc1
0.58 | COc1ccc(C(=O)Nc2nc(-c3ccccc3)ns2)cc1C
3.3 | COc1ccc(NC(=O)Nc2nc(-c3ccccc3)ns2)cc1
0.41 | O=C(Nc1nc(-c2ccccc2)ns1)c1ccccc1
1.7 | COC1CCC(C(=O)Nc2nc(-c3ccccc3)ns2)CC1 (stereo in doubt; 8k)
1.2 | O=C(O)COc1ccc(C(=O)Nc2nc(-c3ccccc3)ns2)cc1
0.082 | COc1ccc(C(=O)Nc2nc(-c3ccccc3)ns2)cc1
0.004 | COc1ccccc1NC(=O)Nc1nc(-c2cccnc2)nc2ccccc12
0.67 | COc1ccc(C(=O)Nc2nc(-c3ccccc3)cs2)cc1

Second part, the molecule before the results:

Structure (SMILES) | Ki [µM]
COC1CCC(C(=O)Nc2nc(-c3ccccc3)ns2)CC1 (stereo in doubt; 8l) | 5.3
O=C(Nc1nc(-c2ccccc2)nc2ccccc12)c1ccccc1 | 0.24
COc1ccc(C(=O)Nc2cccc(-c3ccccc3)c2)cc1 | 10
O=C(Nc1nc(-c2ccccn2)cs1)c1cccc(Cl)c1 | 4.6
O=C(Nc1nc(-c2ccccn2)cs1)c1ccccc1 | 3.4
COc1ccc(C(=O)Nc2cccc(-c3ccccc3)n2)cc1 | 8.7
O=C(Nc1nc(-c2ccccn2)cs1)C1CCCC1 | 2.1
COc1ccc(NC(=O)Nc2nc(-c3ccccn3)cs2)cc1 | 147
O=C(Nc1ccccc1)Nc1nc(-c2ccccn2)cs1 | 5

Biological target: Adenosine receptor A2a (Rattus norvegicus) (UniProt P30543)
Assay: Percent displacement of [3H]-CGS- 21680 binding in adenosine A2A receptor of rat striatal membrane at a concentration of 10 uM
Details: not given

Displacement [%] | Structure (SMILES)
19 | COc1ccc(C(=O)Nc2nc(-c3ccccn3)cc3ccccc23)cc1

Biological target: T4, Adenosine receptor A1 (Rattus norvegicus, UniProt P25099)
T4 sequence (P25099 whole entry): T2 sequence (whole entry)
Assay: not given
Details: not given

Ki [µM] | Structure (SMILES)
0.0073 | O=C(Nc1nc(-c2ccccc2)ns1)c1ccc(O)cc1
0.031 | O=C(Nc1nc(-c2ccccc2)ns1)c1ccccc1
0.032 | COC1CCC(C(=O)Nc2nc(-c3ccccc3)ns2)CC1 (stereo in doubt; 8k)
0.1 | O=C(O)COc1ccc(C(=O)Nc2nc(-c3ccccc3)ns2)cc1
0.032 | COc1ccc(C(=O)Nc2nc(-c3ccccc3)ns2)cc1
> 10 | COc1ccccc1NC(=O)Nc1nc(-c2cccnc2)nc2ccccc12
0.076 | COc1ccc(C(=O)Nc2nc(-c3ccccc3)cs2)cc1

Further lines, the molecule ahead of its results:

Structure (SMILES) | Ki [µM]
COC1CCC(C(=O)Nc2nc(-c3ccccc3)ns2)CC1 (stereo in doubt; 8l) | 0.11
COc1ccc(C(=O)Nc2nc(-c3ccccn3)cc3ccccc23)cc1 | > 10
O=C(Nc1nc(-c2ccccn2)cs1)c1cccc(Cl)c1 | 1.7
O=C(Nc1nc(-c2ccccn2)cs1)c1ccccc1 | 1.7
O=C(Nc1nc(-c2ccccn2)cs1)C1CCCC1 | 0.92
O=C(Nc1ccccc1)Nc1nc(-c2ccccn2)cs1 | 0.93

Biological target: T2, Adenosine receptor A1 (Rattus norvegicus)
Assay: not given
Details: 10 uM

Displacement [%] | Structure (SMILES)
37 | COc1ccc(C(=O)Nc2nc(-c3ccccn3)cc3ccccc23)cc1

Biological target: T5, Adenosine receptor A3 (Homo sapiens) (UniProt P0DMS8)
T5 sequence (whole entry): T3 sequence (P0DMS8 whole entry)
Assay: Displacement of [125I]AB-MECA from adenosine A3 receptor expressed in HEK 293 cells at 10 uM
Details: HEK293

Displacement [%] | Structure (SMILES)
35 | COc1ccc(C(=O)Nc2cc(-c3ccccc3)[nH]n2)cc1
28 | O=C(Nc1nc(-c2ccccc2)ns1)c1ccc([N+](=O)[O-])cc1
20 | COc1ccccc1NC(=O)Nc1nc(-c2ccccc2)ns1
41 | COc1ccc(C(=O)NC2=NN(c3ccccc3)CC2)cc1
